Values of other authors in patent EP4599698A1, “PRODUCTS COMPRISING SENSORY AGENTS” (Nicoventures Trading Limited, priority 2024, dated 2025).
Each block holds one compound with its values, some of them ahead of it.

Tests used:
[1] = system: TRPA1-containing neurons
[2] = biological target: TRP melastatin 8/TRPM8 (Homo sapiens, UniProt Q7Z2W7)
[3] = biological target: transient receptor potential vanilloid 1/TRPV1 (Homo sapiens, UniProt Q8NER1)
[4] = biological target: TRP ankyrin 1/TRPA1 (Homo sapiens, UniProt O75762)
Chain of TRP ankyrin 1/TRPA1 (O75762 whole entry): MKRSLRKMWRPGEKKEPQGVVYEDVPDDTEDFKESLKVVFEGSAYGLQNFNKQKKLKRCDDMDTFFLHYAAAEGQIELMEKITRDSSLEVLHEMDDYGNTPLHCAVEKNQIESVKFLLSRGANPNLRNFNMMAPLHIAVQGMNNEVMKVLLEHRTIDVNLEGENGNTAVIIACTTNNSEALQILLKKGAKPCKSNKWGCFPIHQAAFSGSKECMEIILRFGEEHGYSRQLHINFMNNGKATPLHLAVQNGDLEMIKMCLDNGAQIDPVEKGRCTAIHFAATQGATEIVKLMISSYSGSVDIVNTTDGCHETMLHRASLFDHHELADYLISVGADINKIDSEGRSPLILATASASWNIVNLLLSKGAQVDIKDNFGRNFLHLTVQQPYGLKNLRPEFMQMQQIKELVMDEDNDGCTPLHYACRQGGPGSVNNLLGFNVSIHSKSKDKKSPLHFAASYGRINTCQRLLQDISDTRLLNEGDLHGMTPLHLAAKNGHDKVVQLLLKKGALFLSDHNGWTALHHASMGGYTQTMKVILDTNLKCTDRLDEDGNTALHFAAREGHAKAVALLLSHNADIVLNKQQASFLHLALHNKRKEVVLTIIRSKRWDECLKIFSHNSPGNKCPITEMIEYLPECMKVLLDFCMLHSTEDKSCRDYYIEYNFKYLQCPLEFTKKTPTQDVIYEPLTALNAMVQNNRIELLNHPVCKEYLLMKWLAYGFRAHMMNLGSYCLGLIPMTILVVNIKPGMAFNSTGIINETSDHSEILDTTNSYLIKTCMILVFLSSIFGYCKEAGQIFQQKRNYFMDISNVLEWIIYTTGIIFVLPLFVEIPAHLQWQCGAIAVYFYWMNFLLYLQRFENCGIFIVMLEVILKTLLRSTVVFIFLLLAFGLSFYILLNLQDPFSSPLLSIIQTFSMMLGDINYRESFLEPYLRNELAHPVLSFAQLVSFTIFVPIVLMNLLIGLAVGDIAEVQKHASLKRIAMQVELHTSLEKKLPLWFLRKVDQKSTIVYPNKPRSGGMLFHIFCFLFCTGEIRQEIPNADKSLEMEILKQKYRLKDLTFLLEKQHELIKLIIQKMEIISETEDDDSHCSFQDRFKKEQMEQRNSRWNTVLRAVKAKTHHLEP

[5] = when isolated; converts via isomerization into trans-bixin (β-bixin)

Chain of transient receptor potential vanilloid 1/TRPV1 (Q8NER1 whole entry): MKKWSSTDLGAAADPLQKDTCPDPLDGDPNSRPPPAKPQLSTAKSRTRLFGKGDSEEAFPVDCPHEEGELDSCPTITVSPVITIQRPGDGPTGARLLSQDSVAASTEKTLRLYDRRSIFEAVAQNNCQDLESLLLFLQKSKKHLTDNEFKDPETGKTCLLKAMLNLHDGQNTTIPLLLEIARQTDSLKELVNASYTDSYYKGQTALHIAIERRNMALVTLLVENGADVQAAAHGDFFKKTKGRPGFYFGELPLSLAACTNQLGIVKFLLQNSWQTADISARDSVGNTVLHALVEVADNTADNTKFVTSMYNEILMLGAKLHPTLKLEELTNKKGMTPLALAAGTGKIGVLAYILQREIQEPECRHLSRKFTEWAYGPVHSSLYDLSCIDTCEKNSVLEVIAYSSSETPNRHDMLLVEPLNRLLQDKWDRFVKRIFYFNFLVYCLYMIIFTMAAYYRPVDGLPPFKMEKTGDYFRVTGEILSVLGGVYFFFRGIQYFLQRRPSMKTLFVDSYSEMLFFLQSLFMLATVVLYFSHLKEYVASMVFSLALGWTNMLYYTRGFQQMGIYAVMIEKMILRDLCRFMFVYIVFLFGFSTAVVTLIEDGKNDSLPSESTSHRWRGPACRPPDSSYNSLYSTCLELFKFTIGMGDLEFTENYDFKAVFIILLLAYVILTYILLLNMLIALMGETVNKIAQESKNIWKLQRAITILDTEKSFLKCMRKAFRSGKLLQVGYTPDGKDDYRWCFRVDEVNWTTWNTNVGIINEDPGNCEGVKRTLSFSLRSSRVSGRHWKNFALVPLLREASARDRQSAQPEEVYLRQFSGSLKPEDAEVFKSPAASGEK
Chain of TRP melastatin 8/TRPM8 (Q7Z2W7 whole entry): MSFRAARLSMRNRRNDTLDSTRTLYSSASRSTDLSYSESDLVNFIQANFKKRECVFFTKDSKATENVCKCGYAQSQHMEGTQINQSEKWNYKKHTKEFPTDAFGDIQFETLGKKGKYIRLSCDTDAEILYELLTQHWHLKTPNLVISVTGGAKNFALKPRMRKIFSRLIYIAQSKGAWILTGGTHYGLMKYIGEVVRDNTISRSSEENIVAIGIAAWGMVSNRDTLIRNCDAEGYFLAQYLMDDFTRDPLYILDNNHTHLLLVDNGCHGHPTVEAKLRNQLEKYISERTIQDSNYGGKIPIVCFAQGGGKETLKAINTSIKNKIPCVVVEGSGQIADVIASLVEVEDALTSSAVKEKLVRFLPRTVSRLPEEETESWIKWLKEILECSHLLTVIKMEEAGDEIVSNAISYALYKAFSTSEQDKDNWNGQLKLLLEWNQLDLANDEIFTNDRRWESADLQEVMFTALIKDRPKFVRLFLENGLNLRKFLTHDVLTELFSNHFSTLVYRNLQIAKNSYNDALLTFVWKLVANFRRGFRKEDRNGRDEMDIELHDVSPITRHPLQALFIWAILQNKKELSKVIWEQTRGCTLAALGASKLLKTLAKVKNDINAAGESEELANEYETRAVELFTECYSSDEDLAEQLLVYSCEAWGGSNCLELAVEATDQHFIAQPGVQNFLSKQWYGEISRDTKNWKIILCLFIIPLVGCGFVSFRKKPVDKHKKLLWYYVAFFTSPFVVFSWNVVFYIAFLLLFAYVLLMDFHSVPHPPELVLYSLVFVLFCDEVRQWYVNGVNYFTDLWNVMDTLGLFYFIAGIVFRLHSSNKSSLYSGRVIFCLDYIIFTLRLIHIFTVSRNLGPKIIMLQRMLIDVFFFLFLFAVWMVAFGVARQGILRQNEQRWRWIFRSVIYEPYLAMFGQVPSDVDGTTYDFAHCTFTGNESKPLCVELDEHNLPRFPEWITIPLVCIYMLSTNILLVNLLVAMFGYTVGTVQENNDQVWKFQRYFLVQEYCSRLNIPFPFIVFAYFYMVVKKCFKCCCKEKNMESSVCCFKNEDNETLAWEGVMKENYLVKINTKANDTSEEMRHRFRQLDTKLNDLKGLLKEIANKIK

- agonist activity at TRPM8 [2]: weak agonist
SMILES: C=CC(C)(O)CCC=C(C)C (stereo not shown) [Linalool]
- stimulation of TRPA1-containing neurons [1]: shown to stimulate

- agonist activity at TRPV1 [3]: agonist
- agonist activity at TRPA1 [4]: agonist
SMILES: C/C=C/C=C/C=C\CC/C=C/C(=O)NCC(C)(C)O [Hydroxyl-α-sanshool]

- solubility in water: water soluble
SMILES: CC(/C=C/C=C(C)/C=C/C(=O)O)=C\C=C\C=C(C)\C=C\C=C(C)\C=C\C(=O)O (stereo in doubt) [norbixin, (2E,4E,6E,8E,10E,12E,14E,16E,18E)-4,8,13,17-tetramethylicosa-2,4,6,8,10,12,14,16,18-nonaenedioic acid]

- chemical stability [5]: chemically unstable when isolated
- solubility in water: insoluble in water
SMILES: COC(=O)/C=C/C(C)=C\C=C\C(C)=C\C=C\C=C(C)\C=C\C=C(C)\C=C\C(=O)O [bixin, (2E,4E,6E,8E,10E,12E,14E,16Z,18E)-20-methoxy-4,8,13,17-tetramethyl-20-oxoicosa-2,4,6,8,10,12,14,16,18-nonaenoic acid]
